Test results as given in ChEMBL document CHEMBL5518196, “Discovery of potent thiazolidin-4-one sulfone derivatives for inhibition of proliferation of osteosarcoma in vitro and in vivo” (Eur J Med Chem, 2024).
pIC50: −log10 of the molar value. One block for each compound: values may come before it. The source made the active and inactive calls. The calls are words filed in the database; no cut-off is given here.

Legend:
[1] = Toxicity in female BALB/c mouse xenografted with human MNNG/HOS cells assessed as effect on kidney weight at 62.5 mg/kg, ip administered twice daily for 23 days; type: organism-based, HOS-TE85; conditions: in vivo, 552 h, time 23 day
[2] = Cmax in male ICR mouse at 12.5 mg/kg, iv measured after 24 hrs by LC-MS/MS analysis; type: ADME, organism-based; conditions: in vivo
[3] = Toxicity in female BALB/c mouse xenografted with human MNNG/HOS cells assessed as effect on liver weight at 62.5 mg/kg, ip administered twice daily for 23 days; type: organism-based, HOS-TE85; conditions: in vivo, 552 h, time 23 day
HOS-TE85 [4] = experiment: Induction of apoptosis in human MNNG/HOS cells assessed as effect on Bcl-2 level incubated for 24 hrs by Western blot analysis; type: functional, cell-based
[5] = Toxicity in female BALB/c mouse xenografted with human MNNG/HOS cells assessed as effect on heart weight at 62.5 mg/kg, ip administered twice daily for 23 days; type: organism-based, HOS-TE85; conditions: in vivo, 552 h, time 23 day
[6] = AUC (0 to infinity) in male ICR mouse at 62.5 mg/kg, ip measured after 24 hrs by LC-MS/MS analysis; type: ADME, organism-based; conditions: in vivo
MGC-803 = experiment: Antiproliferative activity against human MGC-803 cells assessed as inhibition of cell growth incubated for 72 hrs by CCK8 assay; type: functional, cell-based; conditions: MGC-803, 72 h
[7] = Antiproliferative activity against BMSC (unknown origin) assessed as inhibition of cell growth incubated for 72 hrs by CCK8 assay; type: functional, cell-based
SAOS-2 = experiment: Antiproliferative activity against human SAOS-2 cells assessed as inhibition of cell growth incubated for 72 hrs by CCK8 assay; type: functional, cell-based; conditions: SAOS-2, 72 h
[8] = Toxicity in female BALB/c mouse xenografted with human MNNG/HOS cells assessed as effect on spleen morphology at 62.5 mg/kg, ip administered twice daily for 23 days by Hematoxylin and Eosin staining based analysis; type: organism-based, HOS-TE85; conditions: in vivo, 552 h, time 23 day
[9] = Metabolic stability in mouse liver microsomes assessed as half-life at 0.1 uM preincubated for 10 mins followed by NADPH addition and measured upto 60 mins by LC-MS/MS analysis; type: ADME, Microsome; conditions: time < 70 min
HOS-TE85 [10] = experiment: Effect on DDX5 protein expression in human MNNG/HOS cells by ABPP assay; type: functional, cell-based
[11] = Metabolic stability in human liver microsomes assessed as half-life at 0.1 uM preincubated for 10 mins followed by NADPH addition and measured upto 60 mins by LC-MS/MS analysis; type: ADME, Microsome; conditions: time < 70 min
[12] = Toxicity in female BALB/c mouse xenografted with human MNNG/HOS cells assessed as effect on spleen weight at 62.5 mg/kg, ip administered twice daily for 23 days; type: organism-based, HOS-TE85; conditions: in vivo, 552 h, time 23 day
[13] = Metabolic stability in human liver microsomes assessed as bioavailability at 0.1 uM preincubated for 10 mins followed by NADPH addition and measured upto 60 mins by LC-MS/MS analysis; type: ADME, Microsome; conditions: time < 70 min
[14] = Half-life in male ICR mouse at 62.5 mg/kg, ip measured after 24 hrs by LC-MS/MS analysis; type: ADME, organism-based; conditions: in vivo
143B = experiment: Antiproliferative activity against human 143B cells assessed as inhibition of cell growth incubated for 72 hrs by CCK8 assay; type: functional, cell-based
SJSA-1 = experiment: Antiproliferative activity against human SJSA-1 cells assessed as inhibition of cell growth incubated for 72 hrs by CCK8 assay; type: functional, cell-based; conditions: SJSA-1, 72 h
HOS-TE85 [15] = experiment: Induction of apoptosis in human MNNG/HOS cells assessed as effect on Bax level incubated for 24 hrs by Western blot analysis; type: functional, cell-based
[16] = AUC (0 to infinity) in male ICR mouse at 12.5 mg/kg, iv measured after 24 hrs by LC-MS/MS analysis; type: ADME, organism-based; conditions: in vivo
[17] = Cmax in male ICR mouse at 62.5 mg/kg, ip measured after 24 hrs by LC-MS/MS analysis; type: ADME, organism-based; conditions: in vivo
[18] = Toxicity in female BALB/c mouse xenografted with human MNNG/HOS cells assessed as effect on kidney morphology at 62.5 mg/kg, ip administered twice daily for 23 days by Hematoxylin and Eosin staining based analysis; type: organism-based, HOS-TE85; conditions: in vivo, 552 h, time 23 day
HOS-TE85 [19] = experiment: Potency index, ratio of sorafenib IC50 to test compound IC50 for antiproliferative activity against human MNNG/HOS cells; type: functional
A549 = experiment: Antiproliferative activity against human A549 cells assessed as inhibition of cell growth incubated for 72 hrs by CCK8 assay; type: functional, cell-based; conditions: A549, 72 h
HOS-TE85 [20] = experiment: Antitumor activity against human MNNG/HOS cells xenografted in female BALB/c mouse assessed as tumor growth inhibition at 62.5 mg/kg, ip administered twice daily for 23 days relative to control; type: functional; conditions: HOS-TE85, 552 h, time 23 day, read-out: TGI
HOS-TE85 [21] = experiment: Induction of apoptosis in human MNNG/HOS cells assessed as effect on caspase-3 level incubated for 24 hrs by Western blot analysis; type: functional, cell-based
HOS-TE85 [22] = experiment: Antiproliferative activity against human MNNG/HOS cells transfected with DDX5 shRNA assessed as inhibition of cell growth incubated for 72 hrs by CCK8 assay; type: functional, cell-based; conditions: HOS-TE85, 72 h
HOS-TE85 [23] = experiment: Inhibition of MYOF protein expression in human MNNG/HOS cells incubated for 24 hrs by Western blot analysis; type: functional, cell-based
HOS-TE85 [24] = experiment: Antiproliferative activity against human MNNG/HOS cells assessed as inhibition of cell growth incubated for 72 hrs by CCK8 assay; type: functional, cell-based; conditions: HOS-TE85, 72 h
[25] = Toxicity in female BALB/c mouse xenografted with human MNNG/HOS cells assessed as effect on heart morphology at 62.5 mg/kg, ip administered twice daily for 23 days by Hematoxylin and Eosin staining based analysis; type: organism-based, HOS-TE85; conditions: in vivo, 552 h, time 23 day
PC-3 = experiment: Antiproliferative activity against human PC-3 cells assessed as inhibition of cell growth incubated for 72 hrs by CCK8 assay; type: functional, cell-based; conditions: PC-3, 72 h
HOS-TE85 [26] = experiment: Inhibition of p53 protein expression in human MNNG/HOS cells incubated for 24 hrs by Western blot analysis; type: functional, cell-based
MG-63 = experiment: Antiproliferative activity against human MG-63 cells assessed as inhibition of cell growth incubated for 72 hrs by CCK8 assay; type: functional, cell-based; conditions: MG-63, 72 h
[27] = Clearance in male ICR mouse at 12.5 mg/kg, iv measured after 24 hrs by LC-MS/MS analysis; type: ADME, organism-based; conditions: in vivo
HOS-TE85 [28] = experiment: Induction of apoptosis in human MNNG/HOS cells at 0.11 to 0.44 uM incubated for 24 hrs by Annexin V-FITC/PI staining based analysis; type: functional, cell-based; conditions: dose 0.11-0.44 µM
[29] = Toxicity in female BALB/c mouse xenografted with human MNNG/HOS cells assessed as effect on liver morphology at 62.5 mg/kg, ip administered twice daily for 23 days by Hematoxylin and Eosin staining based analysis; type: organism-based, HOS-TE85; conditions: in vivo, 552 h, time 23 day
[30] = Bioavailability in male ICR mouse at 62.5 mg/kg, ip measured after 24 hrs by LC-MS/MS analysis; type: ADME, organism-based; conditions: in vivo
HOS-TE85 [31] = experiment: Inhibition of cell migration in human MNNG/HOS cells assessed as reduction in closure rate at 0.2 uM incubated for 24 hrs by wound healing assay; type: functional, cell-based
HOS-TE85 [32] = experiment: Inhibition of colony formation in human MNNG/HOS cells incubated for 10 days by crystal violet staining based light microscopic analysis; type: functional, cell-based; conditions: dose 0.1-0.4 µM, time 10.0 day
HOS-TE85 [33] = experiment: Antitumor activity against human MNNG/HOS cells xenografted in female BALB/c mouse assessed as reduction in tumor volume at 62.5 mg/kg, ip administered twice daily for 23 days; type: functional, organism-based; conditions: time 23.0 day
[34] = Half-life in male ICR mouse at 12.5 mg/kg, iv measured after 24 hrs by LC-MS/MS analysis; type: ADME, organism-based; conditions: in vivo
HOS-TE85 [35] = experiment: Induction of cell cycle arrest in human MNNG/HOS cells incubated for 24 hrs bby PI/RNase A staining based analysis; type: functional
HOS-TE85 [36] = experiment: Antitumor activity against human MNNG/HOS cells xenografted in female BALB/c mouse assessed as tumor growth inhibition at 30 mg/kg, po administered twice daily for 23 days relative to control; type: functional; conditions: HOS-TE85, 552 h, time 23 day, read-out: TGI
HOS-TE85 [37] = experiment: Antiproliferative activity against human MNNG/HOS cells assessed as inhibition of cell growth incubated for 24 to 72 hrs by CellTiter-Glo luminescent cell viability assay; type: functional, cell-based
[38] = Half-life in male Wistar rat at 100 mg/kg, po; conditions: in vivo
HOS-TE85 [39] = experiment: Inhibition of colony formation in human MNNG/HOS cells at 4 uM incubated for 10 days by crystal violet staining based light microscopic analysis; type: functional, cell-based; conditions: time 10.0 day

Cmax [2]: 5420 ng/mL
AUC(0-inf) [6]: 9560 ng·h/mL
pIC50 (MGC-803): 6.40
half-life at 0.1 µM [9]: 1.23 h
half-life at 0.1 µM [11]: 2.6 h
bioavailability at 0.1 µM [13]: 59.3%
half-life [14]: 1.53 h
pIC50 (SJSA-1): 6.52
AUC(0-inf) [16]: 1660 ng·h/mL
Cmax [17]: 78.3 ng/mL
pIC50 (A549): 5.72
pIC50 (PC-3): 5.37
clearance [27]: 126 mL/min/kg
bioavailability [30]: 115%
half-life [34]: 0.222 h
Structure (SMILES): COCCCCNC(=O)c1cccc(C2N(c3ncccc3OC)C(=O)CS2(=O)=O)n1 (racemic)
Activity [1]: Non-Toxic
Activity [3]: Non-Toxic
Activity (HOS-TE85 [4]): inactive
Activity [5]: Non-Toxic
pIC50 [7]: 5.67
pIC50 (SAOS-2): 6.37
Activity [8]: Non-Toxic
Activity (HOS-TE85 [10]): inactive
Activity [12]: Non-Toxic
pIC50 (143B): 6.53
Activity (HOS-TE85 [15]): inactive
Activity [18]: Non-Toxic
Ratio IC50 (HOS-TE85 [19]): ~20
inhibition in vivo at 62.5 mg/kg (HOS-TE85 [20]): 44.6%
Activity (HOS-TE85 [21]): inactive
pIC50 (HOS-TE85 [22]): 6.56
inhibition (HOS-TE85 [23]): inactive
pIC50 (HOS-TE85 [24]): 6.66
Activity [25]: Non-Toxic
inhibition (HOS-TE85 [26]): inactive
pIC50 (MG-63): 5.96
Activity (HOS-TE85 [28]): inactive
Activity [29]: Non-Toxic
inhibition (HOS-TE85 [31]): Active
inhibition (HOS-TE85 [32]): Dose-Dependent Effect
Activity (HOS-TE85 [33]): Active
Activity (HOS-TE85 [35]): inactive

half-life at 0.1 µM [9]: 0.942 h
half-life at 0.1 µM [11]: 1.51 h
bioavailability at 0.1 µM [13]: 45.8%
Structure (SMILES): COCCCCNC(=O)c1cccc(C2N(c3ccccn3)C(=O)CS2(=O)=O)n1 (stereo not given)
pIC50 (HOS-TE85 [24]): 6.83

half-life [38]: 21.9 h
Structure (SMILES): CNC(=O)c1cc(Oc2ccc(NC(=O)Nc3ccc(Cl)c(C(F)(F)F)c3)cc2)ccn1 [SORAFENIB]
inhibition in vivo at 30 mg/kg (HOS-TE85 [36]): 39.8%
pIC50 (HOS-TE85 [37]): 5.32
inhibition (HOS-TE85 [39]): Active
